Laboratory results taken from ChEMBL document CHEMBL3351433, “Synthesis and evaluation of new 3-phenylcoumarin derivatives as potential antidepressant agents” (Bioorg Med Chem Lett, 2014).

Key:
Mus musculus [1] = test: Antidepressant activity in Swiss mouse assessed as reduction of immobility time at 0.5 mg/kg, ip after 30 mins by forced swimming test relative to vehicle-treated control; assay type: functional; set-up: scale not given: the % may be the effect or the level left; details: route intraperitoneal
Mus musculus [2] = test: Toxicity in Swiss mouse assessed as horizontal activity count at 0.5 mg/kg, ip after 30 mins measured for 120 mins by open field locomotor activity test; assay type: organism-based; set-up: dose 0.5 mg/kg, route intraperitoneal; details: in vivo
Mus musculus [3] = test: Toxicity in Swiss mouse assessed as total distance travelled at 0.5 mg/kg, ip after 30 mins measured for 120 mins by open field locomotor activity test; assay type: organism-based; set-up: dose 0.5 mg/kg, route intraperitoneal; details: in vivo, 2 h
Mus musculus [4] = test: Antidepressant activity in Swiss mouse assessed as reduction of immobility time at 0.25 mg/kg, ip after 30 mins by forced swimming test relative to vehicle-treated control; assay type: functional; set-up: scale not given: the % may be the effect or the level left; details: route intraperitoneal
Mus musculus [5] = test: Antidepressant activity in Swiss mouse assessed as reduction of immobility time at 1 mg/kg, ip after 30 mins by forced swimming test relative to vehicle-treated control; assay type: functional; set-up: scale not given: the % may be the effect or the level left; details: route intraperitoneal
Mus musculus [6] = species on record: Mus musculus; test: Toxicity in Swiss mouse assessed as effect on neuro-muscular coordination after 30 to 180 mins by rotarod test; assay type: organism-based; details: in vivo
Mus musculus [7] = test: Antidepressant activity in Swiss mouse assessed as reduction of immobility time at 0.5 mg/kg, ip by tail suspension test relative to vehicle-treated control; assay type: functional; set-up: scale not given: the % may be the effect or the level left; details: route intraperitoneal
[8] = Volume of distribution in Swiss albino mouse at 1 mg/kg, iv; assay type: ADME, organism-based; set-up: dose 1 mg/kg, route intravenous; details: in vivo
[9] = AUC (0 to infinity) in Swiss albino mouse at 1 mg/kg, iv; assay type: ADME, organism-based; set-up: time infinity, dose 1 mg/kg, route intravenous; details: plasma
[10] = Cmax in Swiss albino mouse at 10 mg/kg, ip; assay type: ADME, organism-based; set-up: dose 10 mg/kg, route intraperitoneal; details: in vivo
[11] = AUC (0 to infinity) in Swiss albino mouse at 10 mg/kg, ip; assay type: ADME, organism-based; set-up: time infinity, dose 10 mg/kg, route intraperitoneal; details: plasma
[12] = Tmax in Swiss albino mouse at 10 mg/kg, ip; assay type: ADME, organism-based; set-up: dose 10 mg/kg, route intraperitoneal; details: in vivo
[13] = Cmax in Swiss albino mouse at 1 mg/kg, iv; assay type: ADME, organism-based; set-up: dose 1 mg/kg, route intravenous; details: in vivo
[14] = Clearance in Swiss albino mouse at 10 mg/kg, ip; assay type: ADME, organism-based; set-up: dose 10 mg/kg, route intraperitoneal; details: in vivo
[15] = Terminal half life in Swiss albino mouse at 10 mg/kg, ip; assay type: ADME, organism-based; set-up: dose 10 mg/kg, route intraperitoneal; details: in vivo, read-out: beta t1/2 (converted)
[16] = Bioavailability in Swiss albino mouse at 10 mg/kg, ip; details: in vivo, intraperitoneal
[17] = Terminal half life in Swiss albino mouse at 1 mg/kg, iv; assay type: ADME, organism-based; set-up: dose 1 mg/kg, route intravenous; details: in vivo, read-out: beta t1/2 (converted)
Mus musculus [18] = test: Volume of distribution in Swiss albino mouse at 10 mg/kg, ip; assay type: ADME, organism-based; set-up: dose 10 mg/kg, route intraperitoneal; details: in vivo
[19] = Clearance in Swiss albino mouse at 1 mg/kg, iv; assay type: ADME, organism-based; set-up: dose 1 mg/kg, route intravenous; details: in vivo
[20] = Oral bioavailability in rat; assay type: ADME, organism-based; details: in vivo

Compound	Activity (Mus musculus [1]) [%]	Activity (Mus musculus [2])	Activity (Mus musculus [3])	Activity (Mus musculus [4]) [%]	Activity (Mus musculus [5]) [%]	Activity (Mus musculus [6])	Activity (Mus musculus [7]) [%]	further results
COc1ccc(-c2cc3cc(CO)cc(C(C)(C)C)c3oc2=O)cc1OC	58							
COc1ccc(-c2cc3cc(CBr)cc(C)c3oc2=O)cc1OC	61							
COc1cc(-c2cc3cc(CBr)cc(C)c3oc2=O)cc(OC)c1OC	73	Non-toxic	Non-toxic	16	71	Non-toxic	49	
COc1ccc(-c2cc3cc(CBr)cc(C(C)(C)C)c3oc2=O)cc1OC	55							
COc1ccc(-c2cc3cc(CNc4ccc(C)cc4)cc(C)c3oc2=O)cc1	80	Non-toxic	Non-toxic	17	75	Non-toxic	53	Vd [8]: 18 L/kg; AUC(0-inf) [9]: 316 ng·h/mL; Cmax [10]: 256 ng/mL; AUC(0-inf) [11]: 2330 ng·h/mL; Tmax [12]: 2 h; Cmax [13]: 105 ng/mL; CL/F [14]: 47.2 mL/min/kg; half-life [15]: 454 min; bioavailability [16]: 73.4%; half-life [17]: 193 min; Vd (Mus musculus [18]): 30.45 L/kg; clearance [19]: 67.3 mL/min/kg
CNCCC(Oc1ccc(C(F)(F)F)cc1)c1ccccc1 (stereo not given) [FLUOXETINE]								bioavailability [20]: 60%
